{
  "source": "patent US9856218B2",
  "about": "“Inhibitors of PRMT5 and methods of their use” (Ohio State Innovation Foundation, priority 2013, dated 2018)",
  "key": {"[1]": {"tested_on": "FLT3 response element in THP-1 cells", "test": "FLT3-promoter-Luciferase reporter assay", "type": "cell-based", "method": "Promoter region of FLT3 (SEQ ID NO. 1: […] […] […] […] […] […] […] […] […] […] […] […] […] […] CGCGAGGCGCGCCGCT.[…] […] […] […] […] […] […]) was cloned into pGL4.11 [luc2P] vector. THP-1 cells were transfected with empty vector or FLT3-promoter luciferase plasmid and Renilla in presence or absence of C12. Firefly luciferase and Renilla luciferase activity was measured using Dual-Luciferase Reporter Assay System (Promega).\nA key regulator of FLT3 expression in AML has been previously identified: a transactivation complex composed of transcription factors SP1 and NFκB(p65) (Liu, S., et al. (2010) Cancer Cell 17, 333-347; Blum, W., et al. (2012) Blood 119, 6025-6031). […] The role of PRMT5 in recruitment and localization of these factors to regulatory region of FLT3 was then tested using a chromatin immunoprecipitation (ChIP) assay and antibodies specific for NFκB(p65), SP1 and primers designed to amplify predicted binding sites at the promoter region of FLT3 (Liu, S., et al. (2008) Blood 4, 2364-2373; Liu, S., et al. (2010) Cancer Cell 17, 333-347). […] PRMT5 was then overexpressed in MV4-11 and THP-1 cells, and the ChIP experiment repeated. […] Additionally, supporting a functional role for PRMT5 in modulating FLT3 activity, inhibition of PRMT5 following exposure to C12 disrupted the FLT3 response element (i.e. FLT3-promoter-Luciferase reporter) activities in THP-1 cells (FIG. 43B). […]"}, "AML cell lines": {"tested_on": "AML cell lines", "test": "MTS growth inhibition assay, summary over cell lines", "type": "cell-based", "method": "Clonogenic assays were set up by plating 1×10^3 cell/mL in semi-solid methylcellulose medium (MethoCult, Stem Cell Technologies). Colonies were counted after 10-14 days using an inverted microscope. Growth inhibition assays were measured using a colorimetric MTS assay: 5×10^4 cells were plated in 100 μL final volume in a 96-well plate in the presence of different concentrations of C12 for 24, 48 and 72 hours at 37° C. Afterwards, 20 μL of the CellTiter 96W AQueous One Solution Reagent, which contains tetrazolium compound [3-(4,5-[…])-5-(3-carboxymethoxyphenyl)-2-(4-sulfophenyl)-2H-tetrazolium, inner salt; MTS] and an electron coupling reagent (phenazine ethosulfate; PES) (Promega, Madison Wis.), was added to each well. Within 1-4 hours of incubation at 37° C., the optical density at 490 and 690 nm was measured. Cell viability was calculated with respect to the control samples and reference background wavelength at 690 nm. At least three independent experiments were performed. […]\nReferring to FIGS. 34A and 34B, a colorimetric MTS assay was used to measure the proliferation rate of AML cell lines and primary blasts from patients after 48 hours incubation with a PRMT5 inhibitor compound (HLCL61 or C12). The dose-dependent decrease in absorbance indirectly correlates with the number of metabolically active live cells. […]"}, "recombinant PRMT1": {"biological_target": "T1, recombinant PRMT1 (Rattus norvegicus, UniProt Q63009)", "T1 construct": "purchased Millipore 14-474", "T1 sequence (Q63009 whole entry)": "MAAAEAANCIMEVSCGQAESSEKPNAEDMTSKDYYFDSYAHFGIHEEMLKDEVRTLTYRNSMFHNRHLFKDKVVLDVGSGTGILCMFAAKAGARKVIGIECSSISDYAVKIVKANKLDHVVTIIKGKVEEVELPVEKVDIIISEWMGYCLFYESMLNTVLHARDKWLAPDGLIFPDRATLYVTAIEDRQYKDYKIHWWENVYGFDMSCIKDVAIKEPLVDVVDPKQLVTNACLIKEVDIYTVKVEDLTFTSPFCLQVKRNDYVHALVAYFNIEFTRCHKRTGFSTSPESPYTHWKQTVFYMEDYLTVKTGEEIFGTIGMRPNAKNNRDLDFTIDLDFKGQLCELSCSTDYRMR", "test": "Histone methyltransferase assay, [3H]SAM", "type": "biochemical", "method": "(§1) Histone methylation was performed in the presence of DMSO, and 1-40 μM inhibitor compounds. […] After 1.5 h incubation at 30° C., reaction mixtures were spotted on Whatman P-81 filter paper, washed five times with 10 mL of […] sodium carbonate buffer (pH 9.0) to remove unincorporated [3H]SAM, and methylated peptides were detected by scintillation counting.\nas §1, with “HLCL-32, HLCL-10, HLCL-61 and HLCL-64.” for “inhibitor compounds.”, “After a” for “After”, “C.” for “C.,”, “[^3H]SAM,” for “[3H]SAM,”"}, "recombinant PRMT4": {"biological_target": "T2, recombinant PRMT4 (Mus musculus, UniProt Q9WVG6)", "T2 construct": "purchased Millipore 14-575", "T2 sequence (Q9WVG6 whole entry)": "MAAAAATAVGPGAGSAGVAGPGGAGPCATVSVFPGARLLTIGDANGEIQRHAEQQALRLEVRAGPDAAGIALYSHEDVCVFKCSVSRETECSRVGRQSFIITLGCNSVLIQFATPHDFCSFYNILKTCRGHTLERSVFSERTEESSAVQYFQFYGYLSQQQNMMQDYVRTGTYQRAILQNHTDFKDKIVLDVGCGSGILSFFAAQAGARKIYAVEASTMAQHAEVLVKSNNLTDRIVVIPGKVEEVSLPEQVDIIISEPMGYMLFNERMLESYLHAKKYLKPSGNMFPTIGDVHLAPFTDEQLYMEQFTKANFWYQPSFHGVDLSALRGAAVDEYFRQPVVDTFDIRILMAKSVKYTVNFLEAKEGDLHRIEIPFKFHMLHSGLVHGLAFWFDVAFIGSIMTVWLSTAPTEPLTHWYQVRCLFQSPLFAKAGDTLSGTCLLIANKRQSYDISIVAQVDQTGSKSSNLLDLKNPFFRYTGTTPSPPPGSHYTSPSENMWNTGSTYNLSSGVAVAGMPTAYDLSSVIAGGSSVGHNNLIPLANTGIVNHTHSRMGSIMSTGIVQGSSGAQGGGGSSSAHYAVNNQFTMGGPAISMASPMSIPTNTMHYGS", "test": "Histone methyltransferase assay, [3H]SAM", "type": "biochemical", "conditions": "FIG. 33A", "method": "as §1\nas §1, with “HLCL-32, HLCL-10, HLCL-61 and HLCL-64.” for “inhibitor compounds.”, “After a” for “After”, “C.” for “C.,”, “[^3H]SAM,” for “[3H]SAM,”"}, "[2]": {"biological_target": "T3, affinity-purified hSWI/SNF associated Fl-PRMT7 (Homo sapiens, UniProt Q9NVM4)", "T3 construct": "made in house", "T3 sequence (Q9NVM4 whole entry)": "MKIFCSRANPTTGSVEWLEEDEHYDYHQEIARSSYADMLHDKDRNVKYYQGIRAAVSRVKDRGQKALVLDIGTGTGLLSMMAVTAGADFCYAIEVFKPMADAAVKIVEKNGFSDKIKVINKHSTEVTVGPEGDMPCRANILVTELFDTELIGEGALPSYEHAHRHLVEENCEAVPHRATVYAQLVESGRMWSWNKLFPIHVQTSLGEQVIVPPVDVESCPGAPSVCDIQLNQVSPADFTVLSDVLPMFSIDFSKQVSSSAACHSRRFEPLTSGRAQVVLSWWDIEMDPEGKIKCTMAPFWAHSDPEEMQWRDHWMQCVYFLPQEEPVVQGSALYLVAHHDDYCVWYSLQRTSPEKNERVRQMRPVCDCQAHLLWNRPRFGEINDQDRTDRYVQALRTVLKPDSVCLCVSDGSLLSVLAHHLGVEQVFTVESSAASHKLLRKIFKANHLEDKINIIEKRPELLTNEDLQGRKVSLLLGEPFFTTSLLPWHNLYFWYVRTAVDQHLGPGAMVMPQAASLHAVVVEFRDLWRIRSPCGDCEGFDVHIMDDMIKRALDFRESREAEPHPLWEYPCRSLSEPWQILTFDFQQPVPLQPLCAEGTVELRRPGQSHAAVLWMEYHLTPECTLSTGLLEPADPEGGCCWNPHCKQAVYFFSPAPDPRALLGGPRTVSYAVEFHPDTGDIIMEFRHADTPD", "test": "Histone methyltransferase assay, [3H]SAM", "type": "biochemical", "conditions": "FIG. 33A", "method": "as §1\nas §1, with “HLCL-32, HLCL-10, HLCL-61 and HLCL-64.” for “inhibitor compounds.”, “After a” for “After”, “C.” for “C.,”, “[^3H]SAM,” for “[3H]SAM,”"}, "[3]": {"test": "In vivo pharmacokinetics, plasma concentration", "parameters": "species or system Mouse", "conditions": "mouse, in vivo", "text": "Pharmacokinetic data of compounds HLCL-7, HLCL-61, and HLCL-66 taken from an in vivo study is illustrated in Table 10. […]"}, "[4]": {"tested_on": "AML cell lines and blasts", "test": "Colony forming assay", "type": "cell-based", "conditions": "100 nM, versus vehicle treated control cells", "method": "Clonogenic assays were set up by plating 1×10^3 cell/mL in semi-solid methylcellulose medium (MethoCult, Stem Cell Technologies). Colonies were counted after 10-14 days using an inverted microscope. Growth inhibition assays were measured using a colorimetric MTS assay: 5×10^4 cells were plated in 100 μL final volume in a 96-well plate in the presence of different concentrations of C12 for 24, 48 and 72 hours at 37° C. Afterwards, 20 μL of the CellTiter 96W AQueous One Solution Reagent, which contains tetrazolium compound [3-(4,5-[…])-5-(3-carboxymethoxyphenyl)-2-(4-sulfophenyl)-2H-tetrazolium, inner salt; MTS] and an electron coupling reagent (phenazine ethosulfate; PES) (Promega, Madison Wis.), was added to each well. Within 1-4 hours of incubation at 37° C., the optical density at 490 and 690 nm was measured. Cell viability was calculated with respect to the control samples and reference background wavelength at 690 nm. At least three independent experiments were performed. Growth curve assays were done by counting live cells using Trypan blue exclusion and inverted microscope for >12 days after plating the cells in 1×10^5 concentrations.\nPRMT5 inhibition by C12 was also effective in promoting apoptosis and differentiation.\nColonies were counted 10-14 days after plating and each treatment was carried out in triplicates."}},
  "data": [
    {"smiles": "CCn1c2ccccc2c2cc(CNCc3ccccc3OC)ccc21", "note": "[HLCL-61]", "values": [
      {"measurement": "FLT3 response element (FLT3-promoter-Luciferase reporter) activities", "setting": "[1]", "result": "disrupted"},
      {"measurement": "IC50", "setting": "AML cell lines; 48 h post treatment, range over AML cell lines", "result": "21 to 21.5", "unit": "µM"},
      {"measurement": "inhibition of cell proliferation", "setting": "AML cell lines; AML cell lines and primary patients' blasts, 1 to 100 μM", "result": "dose-dependent (1 to 100 μM) inhibition of cell proliferation"},
      {"measurement": "inhibition of PRMT1 enzyme", "setting": "recombinant PRMT1; 10 μM, FIG. 17B", "result": "this non-specific activity is lost"},
      {"measurement": "inhibition of PRMT1 enzyme", "setting": "recombinant PRMT1; 20 μM and above, FIG. 17A", "result": "non-specific inhibition"},
      {"measurement": "effect on PRMT1 enzymatic activity", "setting": "recombinant PRMT1; FIG. 33A", "result": "ineffectiveness"},
      {"measurement": "effect on PRMT4 enzymatic activity", "setting": "recombinant PRMT4", "result": "ineffectiveness"},
      {"measurement": "effect on PRMT7 enzymatic activity", "setting": "[2]", "result": "ineffectiveness"},
      {"measurement": "concentration at 0.08 h", "setting": "[3]; ip, 25 mg/kg", "result": 3150, "unit": "nM"},
      {"measurement": "concentration at 0.17 h", "setting": "[3]; ip, 25 mg/kg", "result": 2280, "unit": "nM"},
      {"measurement": "concentration at 0.33 h", "setting": "[3]; ip, 25 mg/kg", "result": 2040, "unit": "nM"},
      {"measurement": "concentration at 0.5 h", "setting": "[3]; ip, 25 mg/kg", "result": 1830, "unit": "nM"},
      {"measurement": "concentration at 1 h", "setting": "[3]; ip, 25 mg/kg", "result": 1390, "unit": "nM"},
      {"measurement": "concentration at 2 h", "setting": "[3]; ip, 25 mg/kg", "result": 1500, "unit": "nM"},
      {"measurement": "concentration at 4 h", "setting": "[3]; ip, 25 mg/kg", "result": 712, "unit": "nM"},
      {"measurement": "concentration at 6 h", "setting": "[3]; ip, 25 mg/kg", "result": 696, "unit": "nM"},
      {"measurement": "concentration at 8 h", "setting": "[3]; ip, 25 mg/kg", "result": 332, "unit": "nM"},
      {"measurement": "concentration at 24 h", "setting": "[3]; ip, 25 mg/kg", "result": 1.4, "unit": "nM"},
      {"measurement": "concentration at 0.08 h", "setting": "[3]; iv, 5 mg/kg", "result": 1220, "unit": "nM"},
      {"measurement": "concentration at 0.17 h", "setting": "[3]; iv, 5 mg/kg", "result": 1610, "unit": "nM"},
      {"measurement": "concentration at 0.33 h", "setting": "[3]; iv, 5 mg/kg", "result": 702, "unit": "nM"},
      {"measurement": "concentration at 0.5 h", "setting": "[3]; iv, 5 mg/kg", "result": 994, "unit": "nM"},
      {"measurement": "concentration at 1 h", "setting": "[3]; iv, 5 mg/kg", "result": 942, "unit": "nM"},
      {"measurement": "concentration at 2 h", "setting": "[3]; iv, 5 mg/kg", "result": 525, "unit": "nM"},
      {"measurement": "concentration at 4 h", "setting": "[3]; iv, 5 mg/kg", "result": 155, "unit": "nM"},
      {"measurement": "concentration at 6 h", "setting": "[3]; iv, 5 mg/kg", "result": 94.4, "unit": "nM"},
      {"measurement": "concentration at 8 h", "setting": "[3]; iv, 5 mg/kg", "result": 51.1, "unit": "nM"},
      {"measurement": "concentration at 24 h", "setting": "[3]; iv, 5 mg/kg", "result": 6.76, "unit": "nM"},
      {"measurement": "colonies formed", "setting": "[4]", "result": "Significantly fewer colonies"}
    ]}
  ]
}
